According to patent US10227331B2 (priority 2015, dated 2019):
pIC50: −log10 of the molar value.

Key:
VIM-1 = VIM-1 (Pseudomonas aeruginosa (strain ATCC 15692 / DSM 22644 / CIP 104116 / JCM 14847 / LMG 12228 / 1C / PRS 101 / PAO1), UniProt A0A0F7KYQ8); test: biochemical; details: CCF2-FA substrate, 2 hours at 25° C
How it was run: (§1)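 Fluorescence assay, CCF2-FA substrate (cephalosporin core linking 7-hydroxycoumarin to fluorescein); inhibitor + MBL + substrate, 2 h, 25° C. IC50 by 4-parameter fit, semi-log plot.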

[1] = system: Klebsiella pneumoniae expressing VIM-1 (IHMA599644); format: cell-based; details: with imipenem 1 μg/ml, 95% inhibition of bacterial growth; for Klebsiella pneumoniae MITC95: VIM-1 (IHMA599644)
How it was run: (§2)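 Colonies from overnight 35 °C blood-agar cultures were suspended in saline, diluted 1:100 into 1.1× CAMHB and exposed to test compound with or without imipenem at 1 μg/ml. After 22–24 h at 35 °C, absorbance was read to find the concentration restoring imipenem susceptibility.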

[2] = system: Serratia marcescens expressing IMP-1 (CL5741); format: cell-based; details: with imipenem 1 μg/ml, 95% inhibition of bacterial growth; for Serratia marcescens MITC95: IMP-1 (CL5741)
How it was run: as §2

[3] = system: Escherichia coli expressing NDM-1 (CLB30005, CLB30016); format: cell-based; details: with imipenem 1 μg/ml, 95% inhibition of bacterial growth; for Escherichia coli MITC95: NDM-1 (CLB30016)
How it was run: as §2

[4] = system: P. aeruginosa expressing IMP-1, efflux− (MB9799); test: Efflux: concentration of MBL inhibitor which restores susceptibility to imipenem; format: cell-based, Pseudomonas aeruginosa; details: imipenem at 2 μg/mL, in the presence of a class A, C, D serine β-lactamase inhibitor closely related to relebactam
Source text: (§3) The strain background is Pseudomonas aeruginosa PAO1.

IMP-1 = IMP-1 (Serratia marcescens, UniProt P52699); test: biochemical; format: biochemical; details: CCF2-FA substrate, 2 hours at 25° C; read-out: IMP-1 IC50
How it was run: as §1

NDM-1 = NDM-1 (Klebsiella pneumoniae, UniProt C7C422); test: biochemical; format: biochemical; details: CCF2-FA substrate, 2 hours at 25° C; read-out: NDM-1 IC50
How it was run: as §1

[5] = system: P. aeruginosa expressing IMP-1, efflux+ (MB9798); format: cell-based, Pseudomonas aeruginosa; details: for P. aeruginosa expressing IMP-1, efflux+ (MB9798) MITC95: imipenem at 2 μg/mL, in the presence of a class A, C, D serine β-lactamase inhibitor closely related to relebactam; for Efflux ratio: ratio MITC95 PA_9798/MITC95 PA_9799
Source text: as §3

Sequence of IMP-1 (P52699 whole entry, looked up, species assumed): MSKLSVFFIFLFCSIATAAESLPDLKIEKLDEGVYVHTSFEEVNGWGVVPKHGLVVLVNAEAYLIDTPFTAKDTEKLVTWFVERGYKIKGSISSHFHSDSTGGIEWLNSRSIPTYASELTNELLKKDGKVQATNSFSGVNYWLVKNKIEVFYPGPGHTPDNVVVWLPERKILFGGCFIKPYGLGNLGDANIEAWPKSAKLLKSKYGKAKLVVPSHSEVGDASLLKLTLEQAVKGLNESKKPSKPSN
Sequence of NDM-1 (C7C422 whole entry, looked up, species assumed): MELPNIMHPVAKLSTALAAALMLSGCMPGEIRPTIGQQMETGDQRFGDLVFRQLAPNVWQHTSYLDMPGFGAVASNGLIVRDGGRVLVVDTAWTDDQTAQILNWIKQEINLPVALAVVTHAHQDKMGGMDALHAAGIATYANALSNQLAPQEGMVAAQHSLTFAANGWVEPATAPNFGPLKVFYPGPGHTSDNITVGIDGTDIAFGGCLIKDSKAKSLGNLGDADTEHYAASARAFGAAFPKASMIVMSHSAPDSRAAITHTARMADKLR

SMILES	pIC50 (VIM-1)	Klebsiella pneumoniae MITC95 [1] [µM]	Serratia marcescens MITC95 [2] [µM]	Escherichia coli MITC95 [3] [µM]	P. aeruginosa expressing IMP-1, efflux− (MB9799) MITC95 [4] [µM]	pIC50 (IMP-1)	pIC50 (NDM-1)	P. aeruginosa expressing IMP-1, efflux+ (MB9798) MITC95 [5] [µM]	Efflux ratio [5]	Klebsiella pneumoniae expressing VIM-1 (IHMA599644) MITC95 [1] [µM]	Serratia marcescens expressing IMP-1 (CL5741) MITC95 [2] [µM]	Escherichia coli expressing NDM-1 (CLB30016) MITC95 [3] [µM]
Nc1nc2c(-c3ccc(S(=O)(=O)C[C@@H](N)CO)c(S(N)(=O)=O)c3-c3nn[nH]n3)cccc2[nH]1 [Example 274, 3-(2-amino-1H-benzo[d]imidazol-4-yl)-6-((S)-2-amino-3-hydroxypropylsulfonyl)-2-(2H-tetrazol-5-yl)benzenesulfonamide]	9.69	1.563	1.563	0.7813	0.7813	9.37	9.95	0.7813	1.00	–	–	–
NC1CCC(c2ccc(S(=O)(=O)CC3CNC3)c(S(N)(=O)=O)c2-c2nnn[nH]2)CC1 (stereo not drawn) [Example 203, 3-(4-aminocyclohexyl)-6-((azetidin-3-ylmethyl)sulfonyl)-2-(1H-tetrazol-5-yl)benzenesulfonamide]	9.23	–	–	–	0.7813	7.64	7.95	3.125	4.00	1.563	1.563	3.125
Nc1cn2cccc(-c3ccc(S(=O)(=O)C4CNC4)c(S(N)(=O)=O)c3-c3nnn[nH]3)c2n1 [Example 65, 3-(2-Aminoimidazo[1,2-a]pyridin-8-yl)-6-(azetidin-3-ylsulfonyl)-2-(H-tetraazol-5-yl)benzenesulfonamide]	9.20	–	–	–	6.25	8.60	9.11	25	4.00	12.5	6.25	1.563
C[C@H](N)CS(=O)(=O)c1ccc(-c2cccc3c2nc(N)n3C)c(-c2nn[nH]n2)c1S(N)(=O)=O [Example 276, 3-(2-amino-1-methyl-1H-benzo[d]imidazol-4-yl)-6-((S)-2-aminopropylsulfonyl)-2-(2H-tetrazol-5-yl)benzenesulfonamide]	9.67	3.125	0.7813	0.7813	0.7813	9.54	9.62	1.563	2.00	–	–	–
NS(=O)(=O)c1c(SC2CNC2)ccc(-c2ccc(NS(=O)(=O)C3CC3)cc2)c1-c1nn[nH]n1 [Example 243, 4-(Azetidin-3-ylthio)-4′-(cyclopropanesulfonamido)-2-(2H-tetrazol-5-yl)-[1,1′-biphenyl]-3-sulfonamide]	8.01	–	–	–	0.7813	7.95	8.23	100	127.99	12.5	3.125	3.125
CCn1c(N)nc2c(-c3ccc(S(=O)(=O)CCN)c(S(N)(=O)=O)c3-c3nn[nH]n3)cccc21 [Example 284, 3-(2-amino-1-ethyl-1H-benzo[d]imidazol-4-yl)-6-(2-aminoethylsulfonyl)-2-(2H-tetrazol-5-yl)benzenesulfonamide]	9.29	1.563	1.563	0.3906	0.7813	9.49	9.54	3.125	4.00	–	–	–
NCCS(=O)(=O)c1ccc(-c2cccc(-n3ccnc3)c2)c(-c2nnn[nH]2)c1S(N)(=O)=O [Example 345, 4-((2-Aminoethyl)sulfonyl)-3′-(1H-imidazol-1-yl)-2-(1H-tetrazol-5-yl)-[1,1′-biphenyl]-3-sulfonamide]	9.36	3.125	1.563	0.7813	0.7813	9.07	8.71	25	32.00	–	–	–
CS(=O)(=O)c1ccc(-c2ccc(N)nc2)c(-c2nn[nH]n2)c1S(N)(=O)=O [Example 237, 3-(6-Aminopyridin-3-yl)-6-(methylsulfonyl)-2-(2H-tetrazol-5-yl)benzenesulfonamide]	9.12	–	–	–	1.563	9.20	8.24	25	15.99	6.25	1.563	0.3906
Nc1nc2c(-c3ccc(S(=O)(=O)CCO)c(S(N)(=O)=O)c3-c3nn[nH]n3)cccc2s1 [Example 314, 3-(2-aminobenzo[d]thiazol-4-yl)-6-((2-hydroxyethyl)sulfonyl)-2-(2H-tetrazol-5-yl)benzenesulfonamide]	9.14	12.5	6.25	12.5	6.25	9.35	9.42	12.5	2.00	–	–	–
C[C@H](N)CS(=O)(=O)c1ccc(-c2cccc3sc(N)nc23)c(-c2nn[nH]n2)c1S(N)(=O)=O [Example 93, 3-(2-aminobenzo[d]thiazol-4-yl)-6-((S)-2-aminopropylsulfonyl)-2-(2H-tetrazol-5-yl)benzenesulfonamide]	9.89	–	–	–	0.7813	9.89	10.14	0.7813	1.00	3.125	0.7813	1.172
NCCS(=O)(=O)c1ccc(-c2cccn3ccnc23)c(-c2nnn[nH]2)c1S(N)(=O)=O [Example 64, 6-((2-Aminoethyl)sulfonyl)-3-(imidazo[1,2-a]pyridin-8-yl)-2-(1H-tetrazol-5-yl)benzenesulfonamide]	9.47	–	–	–	1.563	9.45	8.97	1.563	1.00	3.125	1.563	1.563
